In PubChem BioAssay AID1259407 (Chemical Carcinogenesis Research Information System (CCRIS), 2018):
Active and inactive are the calls of the source. How the calls were made is not given here.

Tested on: CCRIS mutagenicity, Ames/micronucleus/aberration tests
Assay: CCRIS mutagenicity studies

For `COc1ccc(N)cc1`, the mutagenic call (Test System: AMES SALMONELLA TYPHIMURIUM, Strain/Indicator: TA1535, Metabolic Activation: RAT, LIVER, S-9, Method: STANDARD PLATE) was “inactive; negative”, the mutagenic call (Test System: AMES SALMONELLA TYPHIMURIUM, Strain/Indicator: TA1537, Metabolic Activation: HAMSTER, LIVER, S-9, AROCLOR 1254, Method: STANDARD PLATE) was “inactive; negative” and the mutagenic call (Test System: AMES SALMONELLA TYPHIMURIUM, Strain/Indicator: TA1537, Metabolic Activation: HAMSTER, LIVER, S-9, Method: STANDARD PLATE) was “inactive; negative”. The mutagenic call (Test System: AMES SALMONELLA TYPHIMURIUM, Strain/Indicator: TA1537, Metabolic Activation: MOUSE, LIVER, S-9, AROCLOR 1254, Method: STANDARD PLATE) was “inactive; negative”, the mutagenic call (Test System: AMES SALMONELLA TYPHIMURIUM, Strain/Indicator: TA1537, Metabolic Activation: NONE, Method: PREINCUBATION) was “inactive; negative” and the mutagenic call (Test System: AMES SALMONELLA TYPHIMURIUM, Strain/Indicator: TA1537, Metabolic Activation: NONE, Method: STANDARD PLATE) was “inactive; negative”. For the same molecule, the mutagenic call (Test System: AMES SALMONELLA TYPHIMURIUM, Strain/Indicator: TA1537, Metabolic Activation: RAT LIVER S-9, PHENOBARBITAL AND BETA-NAPHTHOFLAVONE, Method: PREINCUBATION) was “inactive; negative”, the mutagenic call (Test System: AMES SALMONELLA TYPHIMURIUM, Strain/Indicator: TA1537, Metabolic Activation: RAT, LIVER, S-9, AROCLOR 1254, Method: STANDARD PLATE) was “inactive; negative” and the mutagenic call (Test System: AMES SALMONELLA TYPHIMURIUM, Strain/Indicator: TA1537, Metabolic Activation: RAT, LIVER, S-9, Method: STANDARD PLATE) was “inactive; negative”. The mutagenic call (Test System: AMES SALMONELLA TYPHIMURIUM, Strain/Indicator: TA1538, Metabolic Activation: HAMSTER, LIVER, S-9, AROCLOR 1254, Method: STANDARD PLATE) was “inactive; negative”, the mutagenic call (Test System: AMES SALMONELLA TYPHIMURIUM, Strain/Indicator: TA1538, Metabolic Activation: HAMSTER, LIVER, S-9, Method: STANDARD PLATE) was “inactive; negative” and the mutagenic call (Test System: AMES SALMONELLA TYPHIMURIUM, Strain/Indicator: TA1538, Metabolic Activation: MOUSE, LIVER, S-9, AROCLOR 1254, Method: STANDARD PLATE) was “inactive; negative”. The mutagenic call (Test System: AMES SALMONELLA TYPHIMURIUM, Strain/Indicator: TA1538, Metabolic Activation: MOUSE, LIVER, S-9, Method: STANDARD PLATE) was “inactive; negative”, the mutagenic call (Test System: AMES SALMONELLA TYPHIMURIUM, Strain/Indicator: TA1538, Metabolic Activation: NONE, Method: STANDARD PLATE) was “inactive; negative” and the mutagenic call (Test System: AMES SALMONELLA TYPHIMURIUM, Strain/Indicator: TA1538, Metabolic Activation: RAT, LIVER, S-9, AROCLOR 1254, Method: STANDARD PLATE) was “inactive; negative”. For the same molecule, the mutagenic call (Test System: AMES SALMONELLA TYPHIMURIUM, Strain/Indicator: TA1538, Metabolic Activation: RAT, LIVER, S-9, Method: STANDARD PLATE) was “inactive; negative”, the mutagenic call (Test System: AMES SALMONELLA TYPHIMURIUM, Strain/Indicator: TA2638, Metabolic Activation: NONE, Method: STANDARD PLATE) was “inactive; negative” and the mutagenic call (Test System: AMES SALMONELLA TYPHIMURIUM, Strain/Indicator: YG1029, Metabolic Activation: HAMSTER, LIVER, S-9, Method: PREINCUBATION) was “active; positive”. The mutagenic call (Test System: AMES SALMONELLA TYPHIMURIUM, Strain/Indicator: YG1029, Metabolic Activation: NONE, Method: PREINCUBATION) was “active; positive”, the mutagenic call (Test System: AMES SALMONELLA TYPHIMURIUM, Strain/Indicator: YG1029, Metabolic Activation: RAT, SEMINAL VESICLE, MICROSOMES, Method: PREINCUBATION) was “active; positive” and the mutagenic call (Test System: E. COLI, Strain/Indicator: WP2 (PKM101), Metabolic Activation: NONE, Method: STANDARD PLATE) was “inactive; negative”. The mutagenic call (Test System: E. COLI, Strain/Indicator: WP2 UVRA (PKM101), Metabolic Activation: NONE, Method: STANDARD PLATE) was “active; positive”, the mutagenic call (Test System: E. COLI, Strain/Indicator: WP2 UVRA, Metabolic Activation: HAMSTER, LIVER, S-9, AROCLOR 1254, Method: STANDARD PLATE) was “inactive; negative” and the mutagenic call (Test System: E. COLI, Strain/Indicator: WP2 UVRA, Metabolic Activation: HAMSTER, LIVER, S-9, Method: STANDARD PLATE) was “inactive; negative”. The mutagenic call (Test System: E. COLI, Strain/Indicator: WP2 UVRA, Metabolic Activation: MOUSE, LIVER, S-9, AROCLOR 1254, Method: STANDARD PLATE) was “inactive; negative”, the mutagenic call (Test System: E. COLI, Strain/Indicator: WP2 UVRA, Metabolic Activation: MOUSE, LIVER, S-9, Method: STANDARD PLATE) was “inactive; negative” and the mutagenic call (Test System: E. COLI, Strain/Indicator: WP2 UVRA, Metabolic Activation: NONE, Method: STANDARD PLATE) was “inactive; negative”. The mutagenic call (Test System: E. COLI, Strain/Indicator: WP2 UVRA, Metabolic Activation: RAT, LIVER, S-9, AROCLOR 1254, Method: STANDARD PLATE) was “inactive; negative”, the mutagenic call (Test System: E. COLI, Strain/Indicator: WP2 UVRA, Metabolic Activation: RAT, LIVER, S-9, Method: STANDARD PLATE) was “inactive; negative” and the mutagenic call (Test System: E.COLI, Strain/Indicator: WP2UVRA/PKM101, Metabolic Activation: RAT LIVER S-9, PHENOBARBITAL AND BETA-NAPHTHOFLAVONE, Method: PREINCUBATION) was “inactive; negative”. The mutagenic call (Test System: E.COLI, Strain/Indicator: WP2UVRA, Metabolic Activation: NONE, Method: PREINCUBATION) was “inactive; negative”, the mutagenic call (Test System: MOUSE LYMPHOMA, Strain/Indicator: L5178Y (TK+/TK-), Metabolic Activation: NONE, Method: SUSPENSION/PLATE) was “active; positive” and the mutagenic call (Test System: MOUSE LYMPHOMA, Strain/Indicator: L5178Y (TK+/TK-), Metabolic Activation: RAT, LIVER, S-9, AROCLOR 1254, Method: SUSPENSION/PLATE) was “active; positive”.
